# Results: publication PMC10835127, “Viruses traverse the human proteome through peptide interfaces that can be biomimetically leveraged for drug discovery” (Proceedings of the National Academy of Sciences of the …, 2024)
# Like-named read-outs stand apart in the source and are kept apart here. No end group written: not given here.
# How the values were obtained:
# HIV1 strain NL4-3 = type: cell-based; conditions: normalized mean of HIV1 replication readout
# HCV replicon = type: cell-based; conditions: normalized mean of HCV replicon readout
# [1] = system: F. novicida (strain U112); type: cell-based
# influenza A H1N1 virus = conditions: 48 hr post-treatment, A549
# EBV = conditions: for EBV Norm MEAN: normalized mean of EBV replication readout
Substance,HIV1 Norm MEAN (HIV1 strain NL4-3),HCV Norm MEAN (HCV replicon),Francisella novicida Norm AUC [1],Neuraminidase activity normalized to vehicle (influenza A H1N1 virus; 200 µM peptide),"Neuraminidase activity normalized to vehicle (influenza A H1N1 virus; 0,823 µM peptide)","Neuraminidase activity normalized to vehicle (influenza A H1N1 virus; 22,2 µM peptide)","Neuraminidase activity normalized to vehicle (influenza A H1N1 virus; 2,4691 µM peptide)","Neuraminidase activity normalized to vehicle (influenza A H1N1 virus; 7,4074 µM peptide)","Neuraminidase activity normalized to vehicle (influenza A H1N1 virus; 66,6667 µM peptide)",EBV Norm MEAN (EBV),HIV1 Norm MEAN (HIV1 strain NL4-3; peptide screen),HCV Norm MEAN (HCV replicon; peptide screen),EBV Norm MEAN (EBV; peptide screen),Francisella novicida Norm AUC ([1]; normalized area under the curve),"inhibition of EBV late gene reporter signal (EBV; 48 h, 20 µM) [%]"
RQARRNRRR [CPEP110],0.3127,0.05205,1.637,"0,8723","1,0272","0,8952","0,9228","0,9411","0,8493",2.204,–,–,–,–,–
LGQGVSIEW [CPEP122],0.4311,0.594,1.0126,"0,6921","1,0256","0,854","0,9073","0,9191","0,7889",0.7196,–,–,–,–,–
RHIICHGGVI [CPEP133],7.136,0.3927,0.5145,"0,0947","0,951","0,4954","0,9186","0,811","0,1797",1.143,–,–,–,–,–
RRPSRPFRK [CPEP88],0.3045,0.6746,1.028,"0,55","0,9984","0,7716","0,8217","0,8463","0,6969",0.9654,–,–,–,–,–
GPSDSGAGRAAEDRKCL [CPEP137],–,–,1.181,"1,0777","1,0904","1,189","0,9326","1,1347","1,0155",–,0.7725,0.6634,1.2267,–,–
CPEP103: viral library peptide from HCV NS4A targeting EEF1A1 (GCVVIVGRIVLSGK),–,–,0.5448,"0,0978","0,8342","0,2828","0,8866","0,7276","0,1254",–,0.2448,0.4622,0.7665,–,–
AHQNSQTHQASLSKQ [CPEP43],–,–,1.137,"0,8034","0,7858","0,9843","0,876","0,8511","0,7841",–,0.3977,1.077,0.682,–,–
RKSASMS [CPEP82],1.975,0.267,1.194,"0,8479","0,801","0,7544","0,6968","0,5924","0,9164",1.372,–,–,–,–,–
PDSDPQIPPPYVEPTA [CPEP138],–,–,0.9657,"1,0087","1,063","1,1918","0,9934","1,0804","1,0379",–,0.606,1.015,0.9708,–,–
CPEP136: peptide of the viral peptide library; sequence page not shown (VTNDCPNSSIVYE),–,–,1.265,"0,9602","0,8343","0,8466","0,9183","0,8168","0,9818",–,0.7957,0.4475,1.578,–,–
CPEP52: peptide of the viral peptide library; sequence page not shown (CFITKALGISYG),5.563,0.3655,2.021,"0,1673","0,9576","1,0146","1,1215","0,9392","0,5319",2.225,–,–,–,–,–
DLYCYEQLNDSSEEEDE [CPEP125],–,–,1.158,"0,7813","1,0772","1,1403","0,9577","1,1015","0,8979",–,1.6,0.9031,1.019,–,–
ISNLPYTIKYKIFEQQ [CPEP120],–,–,0.5785,"1,0456","1,0562","1,193","0,9901","1,0754","1,0268",–,3.21,0.3919,1.211,–,–
SEWQRDQFLSQVK [CPEP95],0.5103,0.2824,–,"0,9927","0,9256","0,9538","0,9776","0,9237","1,0019",0.3991,–,–,–,1.114,60
EDPNEE [CPEP68],1.205,0.2553,0.6174,"0,7574","0,7462","0,8576","0,7296","0,7652","0,95",0.4757,–,–,–,–,–
